In US9340577B2, “HLA binding motifs and peptides and their uses” (priority 1992, dated 2016):
“And” between values parts separate entries of the source, which are not always exact repeats. Identical values can stand only once. No end group written: not given here.

Columns and labels:
A*2601 = A*2601 (Homo sapiens, UniProt P04439, A114D/A173T/A270S/D101N/D185E/E277Q/E87N/F33Y/G231S/I121R/I218V/K168Q/L180W/L300P/L318F/P208A/P217A/Q86R/Q94H/R138Q/S129P/T187R/T323A/T345S/V100A/V358M); assay: biochemical; format: binding
A*2902 = A*2902 (Homo sapiens, UniProt P04439, A270S/D101N/D185E/E176V/E277Q/E87Q/F33T/G231S/H175R/I121M/I218V/I322F/K168Q/L300P/L318F/M331R/P208A/P217A/Q86L/T323A/T345S/V100A/V358M); assay: biochemical; format: binding
A*3002 = A*3002 (Homo sapiens, UniProt P04439, D101N/D140H/D185E/E176R/F33S/G80R/H175R/K168Q/Q94H/R138E/R41S/V100E); assay: biochemical; format: binding
Chain of A*3002 (P04439 whole entry, looked up, the tested form may be a part, stated change not applied): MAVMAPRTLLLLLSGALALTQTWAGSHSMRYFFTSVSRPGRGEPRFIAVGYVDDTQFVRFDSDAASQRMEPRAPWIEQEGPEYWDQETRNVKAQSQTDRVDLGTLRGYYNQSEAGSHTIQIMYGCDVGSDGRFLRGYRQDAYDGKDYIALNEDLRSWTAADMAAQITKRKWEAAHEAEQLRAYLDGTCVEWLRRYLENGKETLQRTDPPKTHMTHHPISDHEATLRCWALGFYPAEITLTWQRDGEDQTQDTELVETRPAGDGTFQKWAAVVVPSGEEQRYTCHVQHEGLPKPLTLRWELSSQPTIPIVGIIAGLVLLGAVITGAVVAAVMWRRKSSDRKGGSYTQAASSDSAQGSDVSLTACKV

HLA-A1 (A*0101) = HLA-A1 (A*0101) (Homo sapiens, UniProt P04439, A114D/A174V/A182V/D101N/D185E/E176A/E190D/L180R/Q94H/R68K/S129P/T187R/V100A/V91M/W191G); assay: biochemical; format: binding
HLA-A*0201 (HLA-A2.1) = HLA-A*0201 (HLA-A2.1) (Homo sapiens, UniProt P04439, D140Y/D185E/D98H/E176V/E277Q/G131W/G231S/I119V/I121R/I166T/I218V/L300P/L318F/N151K/N90K/P208A/P217A/Q86G/Q94H/R138H/R169H/T345S); assay: biochemical; format: binding
HLA-A24 = format: binding, human
A2.1 HLA molecules = A2.1 HLA molecules (Homo sapiens, UniProt P04439, D140Y/D185E/D98H/E176V/E277Q/G131W/G231S/I119V/I121R/I166T/I218V/L300P/L318F/N151K/N90K/P208A/P217A/Q86G/Q94H/R138H/R169H/T345S); format: binding; design: A*0201 / A2.1 Binding / A2 Bind. / A2 / A2.1 (binding capacity): scale not given here

Sequence | IC50 (A*2601) [nM] | IC50 (A*2902) [nM] | IC50 (A*3002) [nM] | IC50 (HLA-A1 (A*0101)) [nM] | binding to HLA-A2.1 (column 3; no allele head shown for these rows) (HLA-A*0201 (HLA-A2.1)) | binding to HLA-A24 (column 6; no allele head shown for these rows) (HLA-A24) | A2 (A2.1 HLA molecules) | A2 Bind. (A2.1 HLA molecules) | A2.1 (HLA-A*0201 (HLA-A2.1))
QTEPDTSNY [Peptide 1549.44] | 4980 | > 20000 |  |  |  |  |  |  | 
ATTDLTIVY [Peptide 1549.51] | 163 |  | 109 |  |  |  |  |  | 
RTTQLFEDNY [Peptide 9012.0149] | > 20000 | 11200 | 7.4 | 2390 |  |  |  |  | 
VTQGLPREY [Peptide 9012.0128] | 3890 | 1010 | 1.7 | 848 |  |  |  |  | 
LSDTRNDVGPY [Peptide 9012.0164] | 586 | 9860 | 152 | 14 |  |  |  |  | 
ITSPPDSSY [Peptide 9012.0118] | 462 | 16500 | 8.8 | 1720 |  |  |  |  | 
LTDKILDHY [Peptide 1593.16] | 804 | 4420 |  | 3.1 |  |  |  |  | 
DSVQILVGY [Peptide 86.0147] | 2.8 |  |  | 1930 |  |  |  |  | 
FLWGPRALA |  |  |  |  | 0.042 and 0.027 | 0 | 0.0420 | 0.0420 | 
RTDGNRQIIGY [Peptide 9012.0158] | > 20000 | > 20000 | 95 | 140 |  |  |  |  | 
KMVELVHFL |  |  |  |  | 0.13 | 0.0043 |  | 0.1600 | 0.16
STDLRDHIDY [Peptide 1580.18] | 9580 | > 20000 |  | 25 |  |  |  |  | 
CTSASNPSPQY [Peptide 9012.0170] | 549 | > 20000 | 484 | 535 |  |  |  |  | 
CQDKILTHY [Peptide 86.0141] | 8900 |  | 188 | 914 |  |  |  |  | 
CILESLFRA |  |  |  |  | 0.073 | 0 |  | 0.0460 | 
DSDQILVGY [Peptide 1593.12] | > 20000 | > 20000 | > 20000 |  |  |  |  |  | 

Sequence | IC50 (A*2601) [nM] | IC50 (A*2902) [nM] | IC50 (A*3002) [nM] | IC50 (HLA-A1 (A*0101)) [nM] | binding to HLA-A2.1 (column 3; no allele head shown for these rows) (HLA-A*0201 (HLA-A2.1)) | binding to HLA-A24 (column 6; no allele head shown for these rows) (HLA-A24) | A2 (A2.1 HLA molecules) | A2 Bind. (A2.1 HLA molecules) | A2.1 (HLA-A*0201 (HLA-A2.1))
LTQRNPQLCY [Peptide 9012.0151] | 21 |  | 7.1 | 6.9 |  |  |  |  | 
TTSPSYTY [Peptide 9012.0100] | 3440 | 213 | 323 |  |  |  |  |  | 
RALAETSYV |  |  |  |  | 0.014 | 0 | 0.0100 | 0.0100 | 
KVLEYVIKV |  |  |  |  | 0.095 | 0 |  | 0.0900 | 
IVEGQVDYY [Peptide 1580.29] | > 20000 | > 20000 |  | 188 |  |  |  |  | 
VSEFRWYRY [Peptide 1549.02] | > 20000 | 1520 |  | 33 |  |  |  |  | 
KSAIVTLTY [Peptide 1580.20] | > 20000 |  | 5.7 | 9.2 |  |  |  |  | 
LSSALEIPY [Peptide 1549.01] | 4110 |  | 83 | 25 |  |  |  |  | 
YVIKVSARV |  |  |  |  | 0.018 | 0 |  | 0.0140 | 
TTEPEAQNTTY [Peptide 9012.0166] | 530 | 1330 |  | 2.1 |  |  |  |  | 
MTETLNNTEY [Peptide 1593.15] | 1620 | 471 |  | 77 |  |  |  |  | 
HTASNPPAQY [Peptide 9012.0142] | 0.54 | 21 | 1.8 |  |  |  |  |  | 
VMIAMEGGHA |  |  |  |  | 0.0023 | 0 |  | 0.0360 | 
ISDYRHYCY [Peptide 1571.26] | > 20000 | 9.9 |  | 9.4 |  |  |  |  | 
VTQGNLELTY [Peptide 9012.0147] | 6720 |  | 23 | 90 |  |  |  |  | 
